≈ marks a conversion by molar mass, not a printed value. Entries after “also recorded” stand apart in the source; their conditions may differ.
Experiments:
[1] = Kinetic solubility assay in PBS; format: physicochemical; details: phosphate-buffered saline, 25 °C, aqueous buffer, kinetic from dmso stock; kinetic solubility in PBS buffer (pH 7.4); read-out: aq. solubility
[2] = test system: BJ-RAS and BJ-TERT cell lines; assay: Resazurin cell viability assay for toxicity testing; format: cell-based
[3] = basic nitrogen; cited from earlier work
OGG1 [4] = target: T1, OGG1 (Homo sapiens, UniProt O15527); assay: Biochemical fluorescence (fluorophore-quencher) assay of OGG1 incision rate, 8-oxoA substrate
T1 construct: made in house
T1 sequence (O15527 whole entry): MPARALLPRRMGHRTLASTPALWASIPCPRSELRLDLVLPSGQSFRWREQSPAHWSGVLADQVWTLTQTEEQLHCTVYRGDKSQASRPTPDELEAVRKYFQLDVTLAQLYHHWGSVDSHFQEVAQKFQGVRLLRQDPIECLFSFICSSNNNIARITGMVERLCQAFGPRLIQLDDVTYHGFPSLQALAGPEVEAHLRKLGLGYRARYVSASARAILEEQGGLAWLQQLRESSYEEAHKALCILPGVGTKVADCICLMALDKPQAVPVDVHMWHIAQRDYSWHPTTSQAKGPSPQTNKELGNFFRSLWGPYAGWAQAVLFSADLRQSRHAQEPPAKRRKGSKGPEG

[5] = test system: panel of DNA glycosylases and NUDIX nucleotide binding proteins; assay: Selectivity: lowest IC50 in glycosylase/NUDIX panel divided by OGG1 AC50; format: biochemical; details: lowest IC50 against panel / OGG1 AC50
[6] = Microsomal stability assay; format: in vitro ADME; details: pH 7.4; mouse liver microsomes
[7] = Microsomal stability assay; format: in vitro ADME, human; details: pH 7.4; human liver microsomes
[8] = Caco-2 permeability assay; format: in vitro ADME; details: human, Caco-2, pH 7.4
OGG1 [9] = target: T1, OGG1; assay: NaBH4 Schiff-base trapping assay; format: biochemical; details: AP or 8-oxoG DNA substrates; 6.25 μM TH10785, 6.25 μM 30, 10 μM 38
[10] = test system: activated peripheral blood mononuclear cells (human T cells); assay: Activated peripheral blood mononuclear cell proliferation assay; format: cell-based
OGG1 [11] = target: T1, OGG1; assay: hOGG1 activity assay on radiolabeled 8-oxoG-containing oligonucleotide (urea-PAGE); format: biochemical

With `c1ccc2c(NC3CCCCC3)nc(C3CC3)nc2c1` [TH10785, reference compound] the solubility at 2 h [1] was 6 µM (≈ 1.6 µg/mL), the toxicity in words ([2]; BJ-TERT and BJ-RAS cells, 30 at 100 μM over several days) was “some toxicity” and the toxicity ([2]; incubation in BJ-RAS and BJ-TERT cell lines) was > 18 µM. For the same compound, the pK a [3] was “≈ 6.55”, the AcLE (OGG1 [4]; (1.37/#heavy atoms) × pAC50) was 0.419 and the AC50 (OGG1 [4]; concentration giving 50% of the incision rate of OGG1 with APE1 (2 nM) control, read-out: AC50 (CI95%)) was 870 nM. The AcLLE (OGG1 [4]; pAC50 – clogP) was 1.57, the selectivity [5] was >120-fold and the microsomal CLint at 2 μM [6] was 347 µL/min/mg. It also gave a microsomal CLint at 2 μM [7] of 18 µL/min/mg, a Papp A→B at 90 min, 10 µM [8] of 1.5 ×10⁻⁶ cm/s and a Papp B→A at 90 min, 10 µM [8] of 4.9 ×10⁻⁶ cm/s. For the same compound, the efflux ratio at 90 min, 10 μM ([8]; P app (B to A) / P app (A to B)) was 3.3, the “effect on level of cross-linked product (Schiff-base formation)” value (OGG1 [9]) was “no discernible effect” and the effect on proliferation ([10]; CD3/CD28/IL-2 activated cells, 96 h) was “suppresses proliferation in a dose-dependent manner at 10 and 20 μM; also recorded: inhibits proliferation”. The toxicity ([10]; value obtained using PBMCs) was 20 µM, the “stimulation of OGG1 AP lyase activity (incised substrate after 4 min)” value (OGG1 [11]; 6.25 μM TH10785, 6.25 μM 30, 10 μM 38, 10 nM hOGG1) was “Stimulation of OGG1 AP lyase activity was observed” and the incision mode (OGG1 [11]; elimination products of AP-site cleavage) was “both β and β,δ-elimination products and β,δ”.

From paper PMC12621200, “Giving an Enzyme Scissors: Serotonin Derivatives as Potent Organocatalytic Switches for DNA Repair Enzyme OGG1” (Journal of Medicinal Chemistry, 2025)
